In US5242680A, “Thiol-reactive maleimido-based radiolabeling reagents” (Merck & Co., Inc., priority 1991, dated 1993):

Assays:
[1] = target: T1, adenylate cyclase (PTH receptor) in human SaOS-2/B10 cells (Homo sapiens, UniProt Q03431); test: Adenylate cyclase assay, human osteosarcoma B10 cell line (SaOS-2/B10); assay type: cell-based; details: mean ± SEM, at least three experiments
T1 construct: endogenous in cells; host or cells: SaOS-2/B10 human osteosarcoma cells
T1 sequence (Q03431 27-593): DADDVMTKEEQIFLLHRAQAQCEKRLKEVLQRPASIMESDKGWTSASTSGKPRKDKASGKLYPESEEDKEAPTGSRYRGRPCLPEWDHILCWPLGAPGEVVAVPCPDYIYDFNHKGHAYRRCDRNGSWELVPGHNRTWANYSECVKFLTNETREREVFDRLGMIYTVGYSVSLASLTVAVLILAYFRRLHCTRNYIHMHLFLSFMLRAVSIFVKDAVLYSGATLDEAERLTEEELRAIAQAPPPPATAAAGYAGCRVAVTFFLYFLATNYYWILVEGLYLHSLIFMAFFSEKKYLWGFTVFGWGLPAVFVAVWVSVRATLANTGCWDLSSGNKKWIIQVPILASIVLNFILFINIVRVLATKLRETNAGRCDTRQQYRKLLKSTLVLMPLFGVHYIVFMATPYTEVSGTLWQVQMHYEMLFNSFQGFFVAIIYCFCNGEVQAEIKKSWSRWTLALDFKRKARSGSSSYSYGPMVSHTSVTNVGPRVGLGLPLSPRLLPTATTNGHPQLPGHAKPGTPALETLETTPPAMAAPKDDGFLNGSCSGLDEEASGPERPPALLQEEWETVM
Procedure: (§1) SaSO-2/B10 cells cultures. The details of maintenance of this cell line in culture were reported previously (see Chorev, M., et al., Intl. J. Peptide & Protein Res. 36, 465-470 (1990)).
(§2) PTH Receptor Binding and Adenylate Cyclase Assays. Kidney-based assays were performed with bovind renal cortical membranes following the procedures previously described (see Goldman, M. E., et al., Endocrinol. 123, 1468-1475 (1988)). Bone-based assays were performed with human SaOS-2/B10 cell cultures. Cyclic AMP was measured using the reported procedure (see Rodan, S. B., et al., J. Clin. Invest. 72, 1511-1515 (1983)), including modifications reported previously (see Chorev. M., et al., Intl. J. Peptide & Protein Res. 36, 465-470 (1990)). Receptor binding affinities for PTHrP analogs were obtained using cells plated in 24-wall dished in RPMI 1640 medium supplemented with 1% BSA, 20 mM HEPES, pH 7.5, and 0.1% azide. [Nle^8,^18, mono-^123 I-Tyr^4 ]bPTH(1-34)NH2 (50,000 cpm/well) was added to confluent monolayers in the absence or presence of varying amounts of analog in a final volume of 0.25 ml. Cultures were incubated at room temperature for 4 hours. Binding reactions were terminated by placing the cultures on ice and washing 4 times with ice cold phosphate buffered saline. Radioactivity associated with the cells was recovered by dissolving the cells in 1 ml of 1N NaOH.
(§3) Data analysis. Inhibition constants for binding (Kb) and adenylate cyclase (Kl) were calculated following a published method (see Cheng, Y. C., et al., Biochem. Pharmacol. 22, 3099-3108 (1973)).

PTH receptor [2] = target: T2, PTH receptor (Homo sapiens, UniProt Q03431); test: PTH receptor binding, human osteosarcoma B10 cell line (SaOS-2/B10); details: inhibiting binding of 95 pM 125I-[Nle8,18,Tyr34]bPTH(1-34)NH2 (footnote a), mean ± SEM, at least three experiments, read-out: Binding Kb
T2 construct: endogenous in cells; host or cells: SaOS-2/B10 human osteosarcoma cells
T2 sequence (Q03431 27-593): T1 sequence (Q03431 27-593)
Procedure: as §1, §2, §3

[3] = target: T3, adenylate cyclase (PTH receptor) in bovine renal cortical membranes (Bos taurus, UniProt Q1LZF7); test: Adenylate cyclase assay, bovine renal cortical membranes; assay type: biochemical; details: mean ± SEM, at least three experiments
T3 construct: from tissue; host or cells: bovine renal cortical membranes
T3 sequence (Q1LZF7 29-589): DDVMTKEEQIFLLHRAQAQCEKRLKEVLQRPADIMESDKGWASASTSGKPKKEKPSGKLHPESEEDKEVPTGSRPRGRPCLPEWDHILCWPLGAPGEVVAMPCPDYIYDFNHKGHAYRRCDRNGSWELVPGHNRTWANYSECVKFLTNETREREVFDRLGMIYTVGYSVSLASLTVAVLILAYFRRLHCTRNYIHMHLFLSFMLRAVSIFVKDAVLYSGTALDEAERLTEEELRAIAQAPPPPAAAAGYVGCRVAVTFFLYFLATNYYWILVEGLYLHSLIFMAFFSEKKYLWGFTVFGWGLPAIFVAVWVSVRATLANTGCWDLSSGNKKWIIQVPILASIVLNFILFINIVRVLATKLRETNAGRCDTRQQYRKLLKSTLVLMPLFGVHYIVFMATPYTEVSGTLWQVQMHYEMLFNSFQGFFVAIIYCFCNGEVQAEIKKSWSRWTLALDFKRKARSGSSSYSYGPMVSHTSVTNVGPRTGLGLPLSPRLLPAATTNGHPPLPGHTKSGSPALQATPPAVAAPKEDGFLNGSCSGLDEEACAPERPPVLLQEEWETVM
Procedure: as §2, §3

PTH receptor [4] = target: T4, PTH receptor (Bos taurus, UniProt Q1LZF7); test: PTH receptor binding, bovine renal cortical membranes; details: inhibiting binding of 25 nM 125I-[Nle8,18,Tyr34]bPTH(1-34)NH2 (footnote c), mean ± SEM, at least three experiments, read-out: Binding Kb
T4 construct: from tissue; host or cells: bovine renal cortical membranes
T4 sequence (Q1LZF7 29-589): T3 sequence (Q1LZF7 29-589)
Procedure: as §2, §3

Question: How did the Km [1] turn out when “[Cys^35 (S-2'-(N-succinyl-β-alanyl-3-iodotyramide)]PTHrP (1-35)NH2 [analog 1A]” was run?
Answer: 0.5 ± 0.04 nM

Question: And the Ki (PTH receptor [2])?
Answer: 4.2 ± 0.7 nM

Question: What about the Km [3] of the same substance?
Answer: 36 ± 7 nM

Question: And the Ki (PTH receptor [4])?
Answer: 14 ± 2 nM

Question: How did the Ki ([1]; antagonizing 0.25 nM [Nle8,18,Tyr34]bPTH(1-34)NH2 (footnote b)) turn out when “Ac[Cys^8 (S-2'-(N-succinyl-β-alanyl-3-idotyramide), Leu^11, D-Trp^12 ]-PTHrP(8-34)NH2 [analog 2A]” was run?
Answer: 2.8 ± 1 nM

Question: And the Ki (PTH receptor [2])?
Answer: 2.4 ± 0.5 nM

Question: And the Ki ([3]; antagonizing 3 nM [Nle8,18,Tyr34]bPTH(1-34)NH2 (footnote d))?
Answer: 22 ± 5 nM

Question: What about the Ki (PTH receptor [4]) of the same substance?
Answer: 2 ± 0.1 nM

Question: With “[Nle^8,18,Lys^13 (ε-Biotinyl),Tyr^34,Cys^35 (S-2'-(N-succinyl-β-alanyl-3-iodotyramide)]bPTH(1-35)NH2 [analog 3A]” as the substance, how does the Km [1] read?
Answer: 0.5 ± 0.06 nM

Question: And the Ki (PTH receptor [2])?
Answer: 1.7 ± 0.2 nM

Question: What about the Km [3] of the same substance?
Answer: 6.4 ± 0.7 nM

Question: What about the Ki (PTH receptor [4]) of the same substance?
Answer: 2 ± 0.2 nM
